Numbers after ± are expanded uncertainties.
Assay: wn = mass fraction of the nth substance listed
Conditions: 100 kPa, Liquid, Vibrating tube method

[Na+].[OH-] [sodium hydroxide] + O
mass density [kg/m3]
Conditions	303.15 K	313.15 K	323.15 K
w1 = 0.2	1213.8 ± 2	1208 ± 2	1202.1 ± 2
w1 = 0.21	1223.5 ± 2	1219 ± 2	1213 ± 2
w1 = 0.22	1236.2 ± 2	1230.3 ± 2	1224.3 ± 2
w1 = 0.23	1246.1 ± 2	1240.2 ± 2	1234.1 ± 2
w1 = 0.24	1256.6 ± 2	1250.6 ± 2	1244.4 ± 2
w1 = 0.25	1268 ± 2.1	1262 ± 2	1256 ± 2
w1 = 0.26	1279.4 ± 2.1	1273.3 ± 2.1	1267.1 ± 2
w1 = 0.27	1289.2 ± 2.1	1283 ± 2.1	1276.7 ± 2.1
w1 = 0.28	1299 ± 2.1	1293.7 ± 2.1	1287.4 ± 2.1
w1 = 0.29	1311 ± 2.1	1304.5 ± 2.1	1298.5 ± 2.1
w1 = 0.3	1321.7 ± 2.1	1315.4 ± 2.1	1308.9 ± 2.1
w1 = 0.31	1330.9 ± 2.1	1324.5 ± 2.1	1318 ± 2.1
w1 = 0.32	1343.4 ± 2.1	1337 ± 2.1	1330.4 ± 2.1
w1 = 0.33	1353.5 ± 2.1	1347 ± 2.1	1340.4 ± 2.1
w1 = 0.34	1364.3 ± 2.1	1357.8 ± 2.1	1351.1 ± 2.1
w1 = 0.35	1372.5 ± 2.1	1365.9 ± 2.1	1359.2 ± 2.1
w1 = 0.36	1381.8 ± 2.1	1375.5 ± 2.1	1369 ± 2.1
w1 = 0.37	1393.6 ± 2.1	1386.8 ± 2.1	1380 ± 2.1
w1 = 0.38	1403.3 ± 2.1	1396.5 ± 2.1	1389.6 ± 2.1
w1 = 0.39	1413.5 ± 2.1	1406.5 ± 2.1	1400 ± 2.1
w1 = 0.4	1423.3 ± 2.1	1416.3 ± 2.1	1409.3 ± 2.1
w1 = 0.41	1432.9 ± 2.1	1425.9 ± 2.1	1418.9 ± 2.1
w1 = 0.42	1443.2 ± 2.2	1436.2 ± 2.1	1429.2 ± 2.1
w1 = 0.43	1452.9 ± 2.2	1445.8 ± 2.1	1438.8 ± 2.1
w1 = 0.44	1460.9 ± 2.2	1453.8 ± 2.2	1446.7 ± 2.2
w1 = 0.45	1470.7 ± 2.2	1463.5 ± 2.2	1456.5 ± 2.2
w1 = 0.46	1479.6 ± 2.2	1472.7 ± 2.2	1465.9 ± 2.2
w1 = 0.47	1489.7 ± 2.2	1482.5 ± 2.2	1475.3 ± 2.2
w1 = 0.48	1499.9 ± 2.2	1492.6 ± 2.2	1485.4 ± 2.2
w1 = 0.49	1509.4 ± 2.2	1502.1 ± 2.2	1494.9 ± 2.2
w1 = 0.5	1518.4 ± 2.2	1511.1 ± 2.2	1503.9 ± 2.2
